The source of these data is patent publication US20240139198A1, “METHOD AND COMBINATION FOR TREATING TUMORS” (CURON BIOPHARMACEUTICAL (SHANGHAI) CO., LIMITED, priority 2021, published 2024).

For one experiment, the system named is A20 cells. Description: A20 mouse B-cell lymphoma animal model, tumor growth in Balb/c mice. The class given is in vivo. On the procedure: The animal experiment was carried out in accordance with the requirements of AAALAC, and was approved by Bikai Animal Experiment Center IACUC to conduct. 6-8 week-old Balb/c mice (16-20 grams) were purchased from Beijing Weitong Lihua Experimental Animal Technology Co., Ltd. Each mouse was subcutaneously inoculated with 500,000 A20 cells, and inoculated on the right rear side of the back of the mouse. When the volume of the tumor grew to about 60mm^3, the mice were randomly assigned to the control group and the experimental group.
Mice were euthanized whnmorbidity or weightloss>20% was observed. Tumors were measured with a caliper twice weekly until final sacrifice. When a tumor size reached approximately 2000 mm^3 or there were animal health issues (20% area of a tumor ulcerated), the animals would be euthanized an date of death recorded. Solid tumor volumes were estimated from two dimensional tumor measurements and calculated according to the following equation:
Tumor volume (mm 3)=[length(mm)×width2 (mm 2)]/2
The percent median regression for a group at a given day was then obtained by taking the median of the individual percent regression calculated for each animal of the group at this day. The day of calculation was determined on the day when ΔT/ΔC (i.e., the ratio of medians of tumor volume changes from baseline between the treated and control groups)was calculated, except when median percent regression was not representative of the activity of the group. In that case, the day was determined on the first day when the median percent regression was maximal. Regressions were defined as partial (PR) if the tumor volume decreased to 50% of the tumor volume at the start of treatment. Complete regression (CR) was considered to have been achieved when tumor volume was below 14 mm^3 or could not be recorded. • RTV: Relative Tumor Volume. RTV=Vt/V0∘ Vt: Tumor volume at the end of an experimental period (treatment group). V0: tumor volume at the beginning of the experiment • TGI: Tumor Growth Inhibition value. TGI=[1−RTV(experimental group)/RTV(control group)]*100%
A two-way ANOVA type with factors treatment an day(repeated) was performed on tumor volume changes from baseline. In case of significant treatment day interaction or treatment effects, it was followed by a contrast analysis with Bonferroni-Holm correction for multiplicity to compare all treated groups to the control group at each day from day 8 to 27. Tumor volume changes from baseline were calculated for each animal and each day by subtracting the tumor volume on the day of first treatment from the tumor volume on the specified observation day. As heterogeneity of variances was observed between groups, the compound symmetric(CS) covariance structure with group=option was chosen for the ANOVA type model (SAS Institute Inc. (2008) SAS/STAT 9.2User′s Guide by CaryNC). All statistical analyses were performed using SAS version v9.2 software. A probability less than 5% (p<0.05).
6-8 weeks old balb/c mice (18-20 g) were purchased from Beijing Weitong Lihua Experimental Animal Technology Co., Ltd., and each mouse was subcutaneously inoculated with 500,000 A20 cells on the right rear side of the mouse's back. Treatment was initiated when tumors grew to a volume of approximately 62 mm^3. CN401 was orally administered at 150 mg/kg twice a day for 3 weeks.
CN202 was administered by intraperitoneal injection, 3 times a week at a dose of 5 mg/kg for 3 weeks. The control group was treated with vehicle (0.5% MC and PBS) without active product. Tumor size and body weight were measured three times a week. This animal experiment was carried out in accordance with the requirements of AAALAC, and was approved by Bikai Animal Experiment Center IACUC to conduct this animal experiment.
Referring to the experimental method of Example 1.1, the difference is that the dosage of CN202 is replaced by 15 mg/kg from 5 mg/kg. […]

Experiment [1] deals with EMT-6 cells (mouse triple-negative breast cancer cells). The class given is in vivo. The conditions noted are these: Example 4, CN401 150 mg/kg oral, twice a week × 4 week (Table 12). Here is the method:
Tumors were measured with a caliper twice weekly until final sacrifice. […] Solid tumor volumes were estimated from two dimensional tumor measurements and calculated according to the following equation: […]

As to `Cc1nc(NC(=O)N2CCC[C@H]2C(N)=O)sc1-c1ccnc(C(C)(C)C(F)(F)F)c1` [Alpelisib, (2S)-1-N-[4-methyl-5-[2-(1,1,1-trifluoro-2-methylpropan-2-yl)pyridin-4-yl]-1,3-thiazol-2-yl]pyrrolidine-1,2-dicarboxamide, reference compound], the “CR(Number of mice with tumor regression/total amount of mice in each group)” value with A20 cells (Example 2.2, Alpelisib 50 mg/kg p.o. qd × 3 weeks, day 21) is on record as 0/7. In addition, the TGI % in the experiment on A20 cells (Example 2.2, Alpelisib 50 mg/kg p.o. qd × 3 weeks, day 21 vs vehicle control, p=0.161) stood at 37%.

Regarding `CC[C@H](Nc1ncnc2nc[nH]c12)c1oc2ccccc2c(=O)c1-c1cccc(F)c1` [CN401, (S)-2-(1-(9H-purin-6-ylamino)propylgroup)-3-(3-fluorophenyl)-4H-chromen-4-one], the TGI % is on record as 3% in experiment [1] (14th day vs vehicle control, p=0.87); 55% in the experiment on A20 cells (Example 1.1, CN401 150 mg/kg p.o. bid × 3 weeks, day 22 vs vehicle control, p=0.034); 55% with A20 cells (Example 1.2, CN401 150 mg/kg p.o. bid × 3 weeks, day 22 vs vehicle control, p=0.034); 45% with A20 cells (Example 2.1, CN401 150 mg/kg p.o. bid × 3 weeks, day 22 vs vehicle control, p=0.028); 55% in the experiment with A20 cells (Example 3, CN401 150 mg/kg p.o. bid × 3 weeks, day 22 vs vehicle control, p=0.034). Moreover, the “CR(Number of mice with tumor regression/total amount of mice in each group)” value is 0/8 in experiment [1] (observed up to 80 days); 2/8 with A20 cells (Example 1.1, CN401 150 mg/kg p.o. bid × 3 weeks, day 22); 2/8 in the experiment on A20 cells (Example 1.2, CN401 150 mg/kg p.o. bid × 3 weeks, day 22); 0/7 in the experiment on A20 cells (Example 2.1, CN401 150 mg/kg p.o. bid × 3 weeks, day 22); 2/8 in the experiment with A20 cells (Example 3, CN401 150 mg/kg p.o. bid × 3 weeks, day 22).

Take “Anti-PD-L1 Ab: Anti-PD-L1 antibody (Atezolizumab), CAS Number: 1380723-44-3 [reference compound]”: the “CR(Number of mice with tumor regression/total amount of mice in each group)” value in the experiment on A20 cells (Example 3, anti-PD-L1 Ab (atezolizumab) 5 mg/kg i.p. biw × 3 weeks, day 22) is 0/8. In the experiment on A20 cells (Example 3, anti-PD-L1 Ab (atezolizumab) 5 mg/kg i.p. biw × 3 weeks, day 22 vs vehicle control, p=0.57), this molecule returned a TGI % of 15%.
